Experimental data reported in patent US20170174632A1, “4-OXO-1, 4-DIHYDROQUINOLINE-3-CARBOXAMIDE AS SELECTIVE LIGAND FOR CANNABINOID RECEPTOR 2 FOR DIAGNOSIS AND THERAPY” (priority 2014, published 2017).

What was measured:
CB2 [1] = molecular target: T1, CB2 (Homo sapiens, UniProt P34972); experiment: In vitro competitive binding assay, [3H]CP55,940 displacement, hCB2 membranes; design: purchased PerkinElmer; host or cells: CHO-K1 cells, stably transfected (membrane preparation); settings: CHO-K1 membranes with human CB2, 1.4 nM [3H]CP55,940, Cheng-Prusoff, three experiments in triplicates; read-out: KiCB2
T1 sequence (P34972 whole entry): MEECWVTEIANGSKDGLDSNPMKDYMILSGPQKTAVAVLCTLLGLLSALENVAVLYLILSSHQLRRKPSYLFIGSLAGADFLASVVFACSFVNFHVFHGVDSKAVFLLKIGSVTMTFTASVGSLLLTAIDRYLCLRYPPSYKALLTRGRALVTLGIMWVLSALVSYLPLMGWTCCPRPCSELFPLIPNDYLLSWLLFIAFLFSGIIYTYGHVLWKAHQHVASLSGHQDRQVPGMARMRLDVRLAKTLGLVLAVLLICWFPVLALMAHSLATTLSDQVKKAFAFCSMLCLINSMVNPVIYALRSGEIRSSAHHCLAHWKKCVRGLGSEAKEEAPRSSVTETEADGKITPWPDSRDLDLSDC
Experimental: The following test was carried out in order to determine the binding affinity of the compounds of formula I towards CB2 and CB1:
Competitive binding reactions were initiated by the addition of a membrane preparation obtained from CHO-K1 cells stably transfected with human CB1 and CB2, respectively, from PerkinElmer (0.5 pig/tube for hCB1 and hCB2) into incubation tubes. As displacer, 1.4 nM [^3H]CP55,940 (PerkinElmer) was used and 6 to 10 concentrations (ranging from 1 pM to 10 μM) of displacing ligand (compound to test) in assay buffer (50 mM TRIS, 1 mM EDTA, 3 mM MgCl2 and 0.05% bovine serum albumin, pH adjusted to 7.4) were added. Nonspecific binding was defined by the presence of 5 μM WIN-55212-2. After incubation at 30° C. for 90 min reactions were terminated by the addition of 3 mL ice cold assay buffer followed by rapid vacuum filtration through a Whatman GF/C filter (pre-soaked for 2 h in 0.05% polyethylenimine in water) and washed twice with 3 mL ice cold assay buffer. The bound activity was counted in a Beckman LS 6500 Liquid Scintillation Counter after adding 3 mL scintillation cocktail (Ultima Gold, Perkin Elmer) and thorough shaking. For each mean value three experiments, each in triplicates, were performed. K, values were determined with the equation from Cheng-Prusoff.

CB2 [2] = molecular target: T2, CB2 (Mus musculus, UniProt P47936); experiment: LPS mouse model of neuroinflammation, small animal PET brain scans; format: in vivo, CD1 male mice
T2 construct: from tissue; host or cells: brain of living CD1 male mice (PET)
T2 sequence (P47936 whole entry): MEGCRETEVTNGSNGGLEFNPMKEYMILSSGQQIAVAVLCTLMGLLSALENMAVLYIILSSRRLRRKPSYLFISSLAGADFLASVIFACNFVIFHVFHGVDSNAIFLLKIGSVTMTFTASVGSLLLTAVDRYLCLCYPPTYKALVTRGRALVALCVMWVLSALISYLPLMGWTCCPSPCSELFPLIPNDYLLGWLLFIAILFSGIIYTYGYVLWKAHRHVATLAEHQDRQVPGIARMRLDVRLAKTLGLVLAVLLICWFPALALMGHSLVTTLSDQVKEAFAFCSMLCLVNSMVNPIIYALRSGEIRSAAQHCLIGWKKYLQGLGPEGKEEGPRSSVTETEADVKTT
Experimental: As a model of neuroinflammation, six CD1 male mice were injected ip (100-150 μl) with 10 mg/kg lipopolysaccharide (LPS), Escherichia coli strain O111:B4, or vehicle (saline) 5 days prior to PET. […] For blocking conditions, 2.0 mg/kg GW405833 was injected sc 30 min before tracer application. Depth of anesthesia was monitored by measuring respiratory frequency (SA Instruments, Inc., Stony Brook, USA). Body temperature was controlled by a rectal probe and kept at 37° C. by a thermocoupler and a heated air stream. Data were reconstructed in user-defined time frames with a voxel size of 0.3875×0.3875×0.775 mm^3 by 2-dimensional-ordered subsets expectation maximization (2D-OSEM). Random and single but no attenuation correction was applied. PET acquisitions were followed by a CT for anatomical orientation. Image files were analyzed with PMOD 3.5 software (PMOD Technologies Ltd., Zurich, Switzerland). Tissue radioactivity was expressed as standardized uptake values (SUV), that is, the decay-corrected radioactivity per cm^3 divided by the injected radioactivity dose per gram of body weight.

CB2 [3] = molecular target: T1, CB2; experiment: Autoradiography with post mortem spinal cord slices of ALS patients; format: binding; design: from tissue; host or cells: human post mortem ALS spinal cord sections; settings: 0.2 nM tracer, absence or presence of 5 μM GW405833
Experimental: (§1) Rodent (mouse and rat) spleen tissue were embedded in TissueTek and cut into 20 μm-thick sections on a Cryostat HM 505 N (Microm) at −15° C. (blade and block). The slices were absorbed on SuperFrost Plus slides (Menzel) and stored at −80° until used. For the experiment, the slices were thawed on ice for 10 min before conditioning in incubation buffer (50 mM TRIS/HCl, 5% BSA, pH 7.4) on ice for 10 min. The slices were then dripped with 600 μL of radioligand solution (0.2 nM) in incubation buffer and incubated for 15 min at rt in a humid chamber. For blockade conditions, the slices were dripped with 600 μL of a mixture of radioligand and GW405833 (5 μM), a specific CB2 partial agonist. After incubation, the slices were washed with washing buffer (50 mM TRIS/HCl, 1% BSA, 5% EtOH, pH 7.4) for 2 min (2×) and with distilled water for 5 s (2×) on ice. After drying for 10 min at rt, the slices were exposed (30 min) to appropriate phosphor imager plates (Fuji) and the films were scanned in a BAS5000 reader (Fuji).
To evaluate the potential of our novel CB2 PET tracer in imaging ALS, post mortem spinal cord tissues from ALS patients were investigated in autoradiography experiments. Human post mortem ALS spinal cord tissue samples were embedded in TissueTek and cut into 20 μm-thick sections on a Cryostat. Autoradiography was performed as described in section “Example 5”.

[4] = Distribution coefficient (log D), shake-flask method; format: physicochemical; settings: octanol / phosphate buffer pH 7.4, shake-flask, radiotracer
Experimental: The partition coefficient D was determined by the shake-flask method. Octanol saturated with phosphate buffer pH 7.4 (0.5 mL) and phosphate buffer saturated with octanol (0.5 mL) were mixed with radiotracer of interest (^˜3 MBq). The samples were shaken for 15 min and then centrifuged at 5000 g for 5 min. Radioactivity in each phase was measured in a gamma counter (Wizard, PerkinElmer). Log D is expressed as the logarithm of the ratio between the radioactivity concentrations (Bq/mL) of the octanol and the buffer phase.

CB2 [5] = molecular target: T3, CB2 (Rattus norvegicus, UniProt Q9QZN9); format: in vivo, male Wistar rats; design: from tissue; host or cells: organs of male Wistar rats after iv tracer injection; settings: baseline vs blocking with 1.5 mg/kg GW405833, Wistar rats
T3 sequence (Q9QZN9 1-360): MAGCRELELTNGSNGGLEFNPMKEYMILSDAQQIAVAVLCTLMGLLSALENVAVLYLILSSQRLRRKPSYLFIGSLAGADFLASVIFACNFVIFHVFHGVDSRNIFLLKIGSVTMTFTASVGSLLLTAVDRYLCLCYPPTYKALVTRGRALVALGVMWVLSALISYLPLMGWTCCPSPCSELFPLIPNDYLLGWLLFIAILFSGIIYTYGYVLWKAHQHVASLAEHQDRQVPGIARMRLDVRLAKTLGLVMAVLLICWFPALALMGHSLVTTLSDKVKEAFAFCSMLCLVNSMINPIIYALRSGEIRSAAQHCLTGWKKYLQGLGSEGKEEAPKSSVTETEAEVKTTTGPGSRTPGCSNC
Experimental: For blocking conditions, GW405833 (1.5 mg/kg) was injected 30 min before the experiment (n=3). Animals were sacrificed under anesthesia with isoflurane by decapitation at 15 min post injection (p.i). Organs were collected, weighed and radioactivity measured in a gamma-counter. The accumulated radioactivity in the organs was expressed as part per thousand normalized injected dose per gram of tissue (% o normalized ID/g tissue).

CB2 [6] = experiment: In vitro autoradiography of rat and mouse spleen slices; format: binding; settings: 0.2 nM radioligand; for binding to spleen slices, displaced by excess of GW405833: blockade 5 μM GW405833
Experimental: as §1

[7] = cited from earlier work
[8] = in vitro transport assay, radiolabelled KD2; cited from earlier work
CB2 [9] = molecular target: T3, CB2; design: host or cells: rats in vivo (Mu et al., J. Neurochem. 2013); settings: cited from earlier work

## COc1cccc2c(=O)c(C(=O)NC34CC5CC(CC(C5)C3)C4)cn(CCOCCF)c12 [RS-126, N-(1-adamantyl)-1-(2-(2-fluoroethoxy)ethyl)-8-methoxy-4-oxo-1,4-dihydroquinoline-3-carboxamide]
CB2 [1]
  Ki: 1.2 ± 0.8 nM

## CCCCn1cc(C(=O)NC(C)(C)C)c(=O)c2cccc(OC)c21 [RS-006, N-(tert-butyl)-1-butyl-8-methoxy-4-oxo-1,4-dihydroquinoline-3-carboxamide]
CB2 [1]
  Ki: 8.2 ± 5.5 nM

## CCOCCn1cc(C(=O)NC23CC4CC(CC(C4)C2)C3)c(=O)c2cccc(OCCF)c21 [RS-122, N-(1-adamantanyl)-1-(2-ethoxyethyl)-8-(2-fluoroethoxy)-4-oxo-1,4-dihydroquinoline-3-carboxamide]
CB2 [1]
  Ki: 72 ± 102 nM

## CCCCn1cc(C(=O)NC23CC4CC(CC(C4)C2)C3)c(=O)c2cccc(OC)c21 [RS-005, N-(1-adamantyl)-1-butyl-8-methoxy-4-oxo-1,4-dihydroquinoline-3-carboxamide]
CB2 [1]
  Ki: 3.3 ± 0.2 nM

## CCCCn1cc(C(=O)NC2CCCC2)c(=O)c2cccc(OC)c21 [RS-007, 1-butyl-N-cyclopentyl-8-methoxy-4-oxo-1,4-dihydroquinoline-3-carboxamide]
CB2 [1]
  Ki: 19.7 ± 8.8 nM

## CCOCCn1cc(C(=O)NC23CC4CC(CC(C4)C2)C3)c(=O)c2cccc(OC)c21 [[^11C]RS-016, N-(1-adamantyl)-1-(2-ethoxyethyl)-8-methoxy-4-oxo-1,4-dihydroquinoline-3-carboxamide]
CB2 [2]; 5 days after 10 mg/kg LPS ip, whole brain, cortex, hippocampus, cerebellum
  tracer accumulation in brain regions after LPS treatment compared to vehicle group: Increased
CB2 [2]; LPS mice, 2 mg/kg GW405833 sc 30 min before tracer
  tracer accumulation in brain regions after blockade: reduced in all brain regions
CB2 [3]
  binding to ALS spinal cord tissue: high specific binding
[4]
  log D pH 7.4: 2.78
CB2 [5]
  share of total activity in spleen tissue due to specific CB2 binding: 78%
CB2 [6]
  unspecific binding on spleen slices: only little unspecific binding
  binding to spleen slices, displaced by excess of GW405833: high binding to spleen

## CCOCCn1cc(C(=O)NC23CC4CC(CC(O)(C4)C2)C3)c(=O)c2cccc(OC)c21 [RS-028, 1-(2-ethoxyethyl)-N-(3-hydroxyadamantan-1-yl)-8-methoxy-4-oxo-1,4-dihydroquinoline-3-carboxamide]
CB2 [1]
  Ki: 0.8 ± 0.8 nM

## CCCCCn1cc(C(=O)NC23CC4CC(CC(C4)C2)C3)c(=O)c2cccc(OC)c21 [KD2, N-(1-adamantyl)-1-pentyl-8-methoxy-4-oxo-1,4-dihydroquinoline-3-carboxamide]
[7]
  log D value at pH 7.4: 3.29
[8]
  blood-brain barrier (BBB) passage: moderate
CB2 [9]; in vivo PET experiments
  distribution in brain: relatively low
CB2 [9]; rats, radiolabelled KD2
  spleen uptake: high spleen uptake
CB2 [1]
  Ki: 1.7 ± 2 nM

## COc1cccc2c(=O)c(C(=O)NC34CC5CC(CC(C5)C3)C4)cn(CCOCC[18F])c12 [[^18F]RS-126]
[4]
  logD: 1.99
CB2 [6]
  unspecific binding on spleen slices: only little unspecific binding
  binding to spleen slices, displaced by excess of GW405833: high binding to spleen

## CCOCCn1cc(C(=O)NC23CC4CC(CC(F)(C4)C2)C3)c(=O)c2cccc(OC)c21 [RS-030, 1-(2-ethoxyethyl)-N-(3-fluoroadamantyl)-8-methoxy-4-oxo-1,4-dihydroquinoline-3-carboxamide]
CB2 [1]
  Ki: 2.1 ± 1.5 nM

## CCOCCn1cc(C(=O)NCCc2ccccc2)c(=O)c2cccc(OC)c21 [RS-022, 1-(2-ethoxyethyl)-8-methoxy-4-oxo-N-phenethyl-1,4-dihydroquinoline-3-carboxamide]
CB2 [1]
  Ki: 360 ± 240 nM

## COc1cccc2c(=O)c(C(=O)NC(C)(C)C)cn(CCCF)c12 [RS-011, N-(tert-butyl)-1-(3-fluoropropyl)-8-methoxy-4-oxo-1,4-dihydroquinoline-3-carboxamide]
CB2 [1]
  Ki: 750 ± 780 nM

## CCCCn1cc(C(=O)NCC2CC2)c(=O)c2cccc(OC)c21 [RS-008, 1-butyl-N-(cyclopropylmethyl)-8-methoxy-4-oxo-1,4-dihydroquinoline-3-carboxamide]
CB2 [1]
  Ki: 78.8 ± 33.1 nM
